Measurements: US20170008888A1 (KYORIN PHARMACEUTICAL CO., LTD., priority 2014, published 2017)
Where two headings read alike, the source gives them in different places.

Tests used:
[1] = system: DNFB-induced ear inflammation mouse model; assay: DNFB-induced ear inflammation (contact hypersensitivity) mouse model: ear weight; type: in vivo, mouse (Balb/c)
Procedure: In vivo T-cell mediated immune response was examined in a mouse model of CHS using the hapten dinitrofluorobenzene (DNFB) as the induction agent. Method for sensitization and elicitation of DNFB-induced CHS was modified from Xu et al. J. Exp. Med. 1996. 183:1001-1012. On Days 0 and 1 (sensitization), 20 μL of 0.5% v/v DNFB in acetone:olive oil (4:1) was applied to each hindpaw of 8 week old male mice (Balb/c, Charles River Laboratories; 10 mice per group unless otherwise noted). On Day 5 (elicitation) 10 μL of 0.2% v/v DNFB in acetone: olive oil (4:1) was applied to the dorsal surface of the right ear of each animal; 10 μL of acetone: olive oil (4:1) was applied to the dorsal surface of the left ear as control. Treatments were administered by group as indicated in the table below; on days when DNFB was used, the QD and the morning dose of BID as appropriate were administered 30 minutes-1 hr. prior to DNFB application. […] Approximately 24 hours after elicitation (Day 6), a 7 mm tissue punch from the central portion of both ears was collected and wet weights measured. The primary functional assessment was the difference in wet weights of the right (DNFB) vs. left (vehicle) ears compared to the vehicle treatment (Vehicle1-S) as an indicator of inflammation (Table 17). Ear tissue punches were flash frozen, stored at −70° C. and analyzed for cytokines (see below). Body weights of the mice were measured at baseline and at end of study, and there were no significant changes in weight in any treatment group during the study (data not shown).

human PBMCs = assay: Cytokine response by primary human PBMCs stimulated with PMA/ionomycin or LPS; type: cell-based; settings: PBMC
Procedure: Freshly isolated human PBMCs were purchased from Astarte Biologics (Redmond, Wash.). Cells were seeded at 2e6 cells/ml in RPMI 1640 (Life Technologies, Grand Island, N.Y.) containing 10% (v/v) charcoal-dextran treated, heat inactivated FBS (Omega Scientific, Tarzana, Calif.), 0.05 mM 2-Mercaptoethanol (Sigma-Aldrich, St. Louis, Mo.), and 1×Pen/Strep Amphotericin B (Lonza, Allendale, N.J.). Cells were pre-treated with 0.1% DMSO or with test compounds for 1 h at 37° C. in a humidified atmosphere at 5% CO2. Compounds were tested at 10 μM down by ⅕ in a 4-point serial dilution series. Cells were then stimulated with either 50 ng/ml phorbol 12-myristate 13-acetate (PMA)(Sigma-Aldrich)+1 μg/ml ionomycin (Life Technologies) or with 100 ng/ml LPS from E. coli 0111:B4 (EMD Millipore, Billerica, Mass.) for 20 h at 37° C. in a humidified atmosphere at 5% CO2. Supernatant was collected and analyzed using the Bio-Plex Pro Human Cytokine 17-Plex Panel (Bio-Rad Laboratories, Hercules, Calif.) as per manufacturer's protocols. Magnetic beads were read on the Bio-Plex MAGPIX multiplex reader instrument using the accompanying xPONENT 4.2 acquisition software (Bio-Rad Laboratories). Data were analyzed via the Bio-Plex Manager software v6.1 (Bio-Rad Laboratories).

TRIM33 = biological target: T1, TRIM33 (Homo sapiens, UniProt Q9UPN9); assay: Bromodomain binding assay: TRIM33
T1 construct: made in house; host or cells: E. coli host derived from the BL21 strain (T7 phage lysate)
Procedure: (§1) T7 phage strains displaying bromodomains were grown in parallel in 24-well blocks in an E. coli host derived from the BL21 strain. E. coli were grown to log-phase and infected with T7 phage from a frozen stock (multiplicity of infection=0.4) and incubated with shaking at 32° C. until lysis (90-150 minutes). The lysates were centrifuged (5,000×g) and filtered (0.2 μm) to remove cell debris. […] The liganded beads were blocked with excess biotin and washed with blocking buffer (SeaBlock (Pierce), 1% BSA, 0.05 Tween 20, 1 mM DTT) to remove unbound ligand and to reduce non-specific phage binding. […] Test compounds (T62 and 46) were prepared as 1000× stocks in 100% DMSO and subsequently diluted 1:10 in monoethylene glycol (MEG) to create stocks at 100× the screening concentration (resulting stock solution is 10% DMSO/90% MEG). The compounds were then diluted directly into the assays such that the final concentration of DMSO and MEG were 0.1% and 0.9%, respectively. All reactions were performed in polystyrene 96-well plates in a final volume of 0.135 ml. […] The bromodomain concentration in the eluates was measured by qPCR. Compounds were assayed for binding activity against a panel of 40 bromodomain-containing proteins.

WDR9 = biological target: T2, WDR9 (Homo sapiens, UniProt Q9NSI6); assay: Bromodomain binding assay: WDR9
T2 construct: made in house; host or cells: E. coli host derived from the BL21 strain (T7 phage lysate)
Procedure: as §1

SMARCA2 = biological target: T3, SMARCA2 (Homo sapiens, UniProt P51531); assay: Bromodomain binding assay: SMARCA2
T3 construct: made in house; host or cells: E. coli host derived from the BL21 strain (T7 phage lysate)
Procedure: as §1

GCN5L2 = biological target: T4, GCN5L2 (Homo sapiens, UniProt Q92830); assay: Bromodomain binding assay: GCN5L2
T4 construct: made in house; host or cells: E. coli host derived from the BL21 strain (T7 phage lysate)
Procedure: as §1

BAZ2A = biological target: T5, BAZ2A (Homo sapiens, UniProt Q9UIF9); assay: Bromodomain binding assay: BAZ2A
T5 construct: T7 phage strains displaying bromodomains were grown in parallel; made in house; host or cells: E. coli host derived from BL21, infected with T7 phage
Procedure: as §1

BRD1 = biological target: T6, BRD1 (Homo sapiens, UniProt O95696); assay: Bromodomain binding assay: BRD1
T6 construct: T7 phage strains displaying bromodomains were grown in parallel; made in house; host or cells: E. coli host derived from BL21, infected with T7 phage
Procedure: as §1

TRIM24 = biological target: T7, TRIM24 (Homo sapiens, UniProt O15164); assay: Bromodomain binding assay: TRIM24
T7 construct: made in house; host or cells: E. coli host derived from the BL21 strain (T7 phage lysate)
Procedure: as §1

FALZ = biological target: T8, FALZ (Homo sapiens, UniProt Q12830); assay: Bromodomain binding assay: FALZ
T8 construct: made in house; host or cells: E. coli host derived from the BL21 strain (T7 phage lysate)
Procedure: as §1

ATAD2B = biological target: T9, ATAD2B (Homo sapiens, UniProt Q9ULI0); assay: Bromodomain binding assay: ATAD2B
T9 construct: T7 phage strains displaying bromodomains were grown in parallel; made in house; host or cells: E. coli host derived from BL21, infected with T7 phage
Procedure: as §1

[2] = 25 mg/kg PO, BID on Day 5 (elicitation)
[3] = 60 mg/kg PO, BID Days 0-5 (from sensitization)
[4] = 60 mg/kg PO, BID on Day 5 (elicitation)
[5] = 100 ng/ml LPS 20 h, read-out: EC50 (μM) under LPS stimulation, G-CSF
[6] = 100 ng/ml LPS 20 h, read-out: EC50 (μM) under LPS stimulation, GM-CSF
[7] = 100 ng/ml LPS 20 h, read-out: EC50 (μM) under LPS stimulation, IFNγ
[8] = 100 ng/ml LPS 20 h, read-out: EC50 (μM) under LPS stimulation, IL-1β
[9] = 100 ng/ml LPS 20 h, read-out: EC50 (μM) under LPS stimulation, IL-2
[10] = 100 ng/ml LPS 20 h, read-out: EC50 (μM) under LPS stimulation, IL-4
[11] = 100 ng/ml LPS 20 h, read-out: EC50 (μM) under LPS stimulation, IL-6
[12] = 100 ng/ml LPS 20 h, read-out: EC50 (μM) under LPS stimulation, IL-7
[13] = 100 ng/ml LPS 20 h, read-out: EC50 (μM) under LPS stimulation, IL-10
[14] = 100 ng/ml LPS 20 h, read-out: EC50 (μM) under LPS stimulation, IL-12
[15] = 100 ng/ml LPS 20 h, read-out: EC50 (μM) under LPS stimulation, IL-13
[16] = 100 ng/ml LPS 20 h, read-out: EC50 (μM) under LPS stimulation, IL-17A
[17] = 100 ng/ml LPS 20 h, read-out: EC50 (μM) under LPS stimulation, MCP-1
[18] = 100 ng/ml LPS 20 h, read-out: EC50 (μM) under LPS stimulation, TNFα
[19] = PMA/ionomycin 20 h, read-out: EC50 (μM) under PMA/ionomycin stimulation, GM-CSF
[20] = PMA/ionomycin 20 h, read-out: EC50 (μM) under PMA/ionomycin stimulation, IL-4
[21] = PMA/ionomycin 20 h, read-out: EC50 (μM) under PMA/ionomycin stimulation, IL-5
[22] = PMA/ionomycin 20 h, read-out: EC50 (μM) under PMA/ionomycin stimulation, IL-6
[23] = PMA/ionomycin 20 h, read-out: EC50 (μM) under PMA/ionomycin stimulation, IL-7
[24] = PMA/ionomycin 20 h, read-out: EC50 (μM) under PMA/ionomycin stimulation, IL-10
[25] = PMA/ionomycin 20 h, read-out: EC50 (μM) under PMA/ionomycin stimulation, IL-12
[26] = PMA/ionomycin 20 h, read-out: EC50 (μM) under PMA/ionomycin stimulation, IL-13
[27] = PMA/ionomycin 20 h, read-out: EC50 (μM) under PMA/ionomycin stimulation, IL-17A
[28] = PMA/ionomycin 20 h, read-out: EC50 (μM) under PMA/ionomycin stimulation, MCP-1
[29] = PMA/ionomycin 20 h, read-out: EC50 (μM) under PMA/ionomycin stimulation, MIP-1β
[30] = PMA/ionomycin 20 h, read-out: EC50 (μM) under PMA/ionomycin stimulation, TNFα

T2 sequence (Q9NSI6 1313-1418 limits assumed): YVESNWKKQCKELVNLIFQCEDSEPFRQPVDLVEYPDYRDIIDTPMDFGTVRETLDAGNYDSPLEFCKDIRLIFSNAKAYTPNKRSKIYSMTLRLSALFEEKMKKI
T9 sequence (Q9ULI0 951-1066 limits assumed, species assumed): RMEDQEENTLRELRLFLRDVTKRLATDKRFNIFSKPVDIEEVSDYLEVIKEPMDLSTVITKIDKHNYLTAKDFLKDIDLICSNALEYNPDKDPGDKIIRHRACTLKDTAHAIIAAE
T1 sequence (Q9UPN9 957-1080 limits assumed): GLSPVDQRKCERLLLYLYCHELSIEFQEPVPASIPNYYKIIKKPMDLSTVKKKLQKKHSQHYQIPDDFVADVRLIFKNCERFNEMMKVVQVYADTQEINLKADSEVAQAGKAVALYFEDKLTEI
T5 sequence (Q9UIF9 1793-1897 limits assumed, species assumed): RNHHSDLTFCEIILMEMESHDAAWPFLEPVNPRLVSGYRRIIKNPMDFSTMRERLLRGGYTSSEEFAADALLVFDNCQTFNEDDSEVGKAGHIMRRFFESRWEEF
T3 sequence (P51531 1378-1506 limits assumed): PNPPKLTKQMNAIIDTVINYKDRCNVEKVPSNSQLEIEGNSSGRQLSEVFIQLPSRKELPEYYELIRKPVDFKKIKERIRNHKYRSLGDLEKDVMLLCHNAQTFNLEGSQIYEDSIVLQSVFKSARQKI
T6 sequence (O95696 562-666 limits assumed, species assumed): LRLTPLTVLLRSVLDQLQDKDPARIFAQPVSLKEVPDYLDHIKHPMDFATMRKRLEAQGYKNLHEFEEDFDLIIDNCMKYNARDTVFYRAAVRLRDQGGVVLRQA
T4 sequence (Q92830 728-832 limits assumed): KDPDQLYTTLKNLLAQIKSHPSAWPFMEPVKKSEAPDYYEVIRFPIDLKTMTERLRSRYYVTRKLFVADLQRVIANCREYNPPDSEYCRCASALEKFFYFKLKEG
T7 sequence (O15164 899-1004 limits assumed): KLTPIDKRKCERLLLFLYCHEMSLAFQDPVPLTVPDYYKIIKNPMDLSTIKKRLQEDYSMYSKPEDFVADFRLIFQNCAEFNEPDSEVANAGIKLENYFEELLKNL

| SMILES | % Reduction Weight Increase Vs. Vehicle 1 Weight Increase [1, 2] | % Reduction Weight Increase Vs. Vehicle 1 Weight Increase [1, 3] | % Reduction Weight Increase Vs. Vehicle 1 Weight Increase [1, 4] | EC50 (human PBMCs; [5]) | EC50 (human PBMCs; [6]) | EC50 (human PBMCs; [7]) | EC50 (human PBMCs; [8]) | EC50 (human PBMCs; [9]) | EC50 (human PBMCs; [10]) | EC50 (human PBMCs; [11]) | EC50 (human PBMCs; [12]) | EC50 (human PBMCs; [13]) | EC50 (human PBMCs; [14]) | EC50 (human PBMCs; [15]) | EC50 (human PBMCs; [16]) | EC50 (human PBMCs; [17]) | EC50 (human PBMCs; [18]) | EC50 (human PBMCs; [19]) | EC50 (human PBMCs; [20]) | EC50 (human PBMCs; [21]) | also measured |
| --- | --- | --- | --- | --- | --- | --- | --- | --- | --- | --- | --- | --- | --- | --- | --- | --- | --- | --- | --- | --- | --- |
| CCOc1cc(C(=O)N2CCCN(C)CC2)ccc1Nc1cc2c(cn1)N(C)C(=O)c1ccccc1N2C [Compound 8] | −9.4% | −38.5% | −22.6% | 4.95 µM | 4.04 µM | 1.67 µM | 3.92 µM | 7.93 µM | 10.9 µM | 4.49 µM | 9.89 µM | 1.09 µM | 1.95 µM | 6.9 µM | > 10 µM | 0.237 µM | 0.304 µM | 4.67 µM | > 10 µM | 3.88 µM | EC50 (human PBMCs; [22]): 2.35 µM; EC50 (human PBMCs; [23]): > 10 µM; EC50 (human PBMCs; [24]): 0.627 µM; EC50 (human PBMCs; [25]): > 10 µM; EC50 (human PBMCs; [26]): 4.22 µM; EC50 (human PBMCs; [27]): > 10 µM; EC50 (human PBMCs; [28]): 0.401 µM; EC50 (human PBMCs; [29]): 4.28 µM; EC50 (human PBMCs; [30]): 8.17 µM |
| CCOc1cc(C(=O)N2CCC(N3CCCC3)CC2)ccc1Nc1cc2c(cn1)N(C)C(=O)c1ccccc1N2C [Compound 46, 3-(2-Ethoxy-4-(4-(pyrrolidin-1-yl)piperidine-1-carbonyl)phenylamino)-5,11-dimethyl-5H-benzo[e]pyrido[3,4-b][1,4]diazepin-10(11H)-one] | −39.5% | −39.5% | −40.5% | 2.52 µM | 2.14 µM | 0.63 µM | 1.65 µM | 3.12 µM | 5.15 µM | 2.07 µM | 4.21 µM | 0.467 µM | 0.713 µM | 3.12 µM | > 10 µM | 0.104 µM | 0.124 µM | 3.27 µM | > 10 µM | 3.16 µM | Kd (TRIM33): > 20 µM; Kd (WDR9): > 20 µM; Kd (SMARCA2): > 20 µM; Kd (GCN5L2): > 20 µM; Kd (BAZ2A): > 20 µM; Kd (BRD1): > 20 µM; EC50 (human PBMCs; [22]): 0.9 µM; EC50 (human PBMCs; [23]): > 10 µM; EC50 (human PBMCs; [24]): 0.181 µM; EC50 (human PBMCs; [25]): > 10 µM; EC50 (human PBMCs; [26]): 4.77 µM; EC50 (human PBMCs; [27]): > 10 µM; EC50 (human PBMCs; [28]): 0.143 µM; EC50 (human PBMCs; [29]): 8.07 µM; EC50 (human PBMCs; [30]): 4.14 µM; Kd (TRIM24): > 20 µM; Kd (FALZ): > 20 µM; Kd (ATAD2B): > 20 µM |
| CCOc1cc(C(=O)N[C@H]2CC[C@H](O)CC2)ccc1Nc1cc2c(cn1)N(C)C(=O)c1ccccc1N2C [Compound T62] | – | – | – | – | – | – | – | – | – | – | – | – | – | – | – | – | – | – | – | – | Kd (TRIM33): > 20 µM; Kd (WDR9): > 20 µM; Kd (SMARCA2): > 20 µM; Kd (GCN5L2): > 20 µM; Kd (BAZ2A): > 20 µM; Kd (BRD1): > 20 µM; Kd (TRIM24): > 20 µM; Kd (FALZ): > 20 µM; Kd (ATAD2B): > 20 µM |
